In patent US20260083704A1, “LXR MODULATORS WITH BICYCLIC CORE MOIETY FOR TREATING DYSLIPIDEMIAS” (OrsoBio, Inc., priority 2022, published 2026):

Assays:
LXRβ = biological target: T1, LXRβ (Homo sapiens, UniProt P55055); assay: LXR Gal4 reporter transient transfection assay (mammalian two-hybrid, HEK293), LXRβ; assay type: cell-based; parameters: LXRβ (amino acids 156-461); expressed in transfected cells; host or cells: HEK293; details: full length (FL) LXRβ, HEK293; read-out: FL-M2H Gal4β
T1 sequence (P55055 1-460): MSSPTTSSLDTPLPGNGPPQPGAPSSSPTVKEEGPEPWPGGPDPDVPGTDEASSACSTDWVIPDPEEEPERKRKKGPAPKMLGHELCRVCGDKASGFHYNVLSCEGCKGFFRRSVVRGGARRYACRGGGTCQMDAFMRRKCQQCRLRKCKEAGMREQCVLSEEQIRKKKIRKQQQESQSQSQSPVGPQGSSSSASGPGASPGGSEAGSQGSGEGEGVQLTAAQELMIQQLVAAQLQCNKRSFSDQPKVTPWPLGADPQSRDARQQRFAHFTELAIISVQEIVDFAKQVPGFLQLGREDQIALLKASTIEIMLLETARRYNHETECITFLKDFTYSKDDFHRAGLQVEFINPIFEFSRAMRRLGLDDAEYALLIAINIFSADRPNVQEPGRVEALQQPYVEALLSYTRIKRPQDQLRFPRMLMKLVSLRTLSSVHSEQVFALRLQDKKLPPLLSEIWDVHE
Protocol: LXRα and LXRβ activity status was determined via detection of interaction with coactivator and corepressor proteins in mammalian two-hybrid experiments (M2H). For this, via transient transfection the full length (FL) proteins of LXRα (amino acids 1-447; NP005684; SEQ ID NO:1) or LXRβ-(amino acids 1-461; NP009052; SEQ ID NO:2) or the ligand-binding domains (LBD) of LXRα (amino acids 155-447 SEQ ID NO:3) or LXRβ (amino acids 156-461; SEQ ID NO:4) were expressed from pCMV-AD (Stratagene) as fusions to the transcriptional activation domain of NFkB. As cofactors, domains of either the steroid receptor coactivator 1 (SRC1; amino acids 552-887; SEQ ID NO:5) or of the corepressor NCoR (amino acids 1906-2312; NP006302; SEQ ID NO:6) were expressed as fusions to the DNA binding domain of the yeast transcription factor GAL4 (from pCMV-BD; Stratagene). Interaction was monitored via activation of a coexpressed Firefly Luciferase Reporter gene under control of a promoter containing repetitive GAL4 response elements (vector pFRLuc; Stratagene). Transfection efficiency was controlled via cotransfection of constitutively active pRL-CMV Renilla reniformis luciferase reporter (Promega). HEK293 cells were grown in minimum essential medium (MEM) with 2 mM L-glutamine and Earle's balanced salt solution supplemented with 8.3% fetal bovine serum, 0.1 mM non-essential amino acids, 1 mM sodium pyruvate, at 37° C. in 5% CO2. 3.5×10^4 cells/well were plated in 96-well cell culture plates in growth medium supplemented with 8.3% fetal bovine serum for 16-20 h to ˜90% confluency. For transfection, medium was taken off and LXR and cofactor expressing plasmids as well as the reporter plasmids are added in 30 μL OPTIMEM/well including polyethylene-imine (PEI) as vehicle. Typical amounts of plasmids transfected/well: pCMV-AD-LXR (5 ng), pCMV-BD-cofactor (5 ng), pFR-Luc (100 ng), pRL-CMV (0.5 ng). Compound stocks were prepared in DMSO, prediluted in MEM to a total volume of 120 μL, and added 4 h after addition of the transfection mixture (final vehicle concentration not exceeding 0.2%). Cells were incubated for additional 16 h, lysed for 10 min in 1×Passive Lysis Buffer (Promega) and Firefly and Renilla luciferase activities were measured sequentially in the same cell extract using buffers containing D-luciferine and coelenterazine, respectively. Measurements of luminescence were done in a BMG-luminometer.
The potencies of Compound 21/3 and its analog, Compound pre-6/3, against LXRα and LXRβ were evaluated in biochemical binding assays, cellular mammalian two-hybrid (M2H) interaction assays evaluating nuclear receptor co-repressor (NCOR) recruitment, and cellular reporter assays evaluating transcriptional activity (Table 5).

[1] = biological target: T2, GST-LXRβ ligand-binding domain (Homo sapiens, UniProt P55055); assay: TR-FRETβ activity assay (NCoA3 coactivator peptide recruitment); assay type: biochemical; details: 1 μM 24(S)-25-epoxycholesterol prestimulation
T2 construct: amino acids 156-461; NP009052; made in house; host or cells: E. coli
T2 sequence (P55055 156-460 limits assumed): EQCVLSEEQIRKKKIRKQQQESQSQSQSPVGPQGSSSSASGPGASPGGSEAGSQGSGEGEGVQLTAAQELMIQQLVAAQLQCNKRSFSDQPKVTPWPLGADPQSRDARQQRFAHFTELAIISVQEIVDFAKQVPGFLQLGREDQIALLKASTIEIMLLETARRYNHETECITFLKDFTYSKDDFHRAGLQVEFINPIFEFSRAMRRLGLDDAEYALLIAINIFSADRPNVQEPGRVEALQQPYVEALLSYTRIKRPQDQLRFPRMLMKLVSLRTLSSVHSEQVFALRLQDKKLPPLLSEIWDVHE
Protocol: Recombinant GST-LXRβ ligand-binding domain (LBD; amino acids 156-461; NP009052; SEQ ID NO:4) was expressed in E. coli and purified via gluthatione-sepharose affinity chromatography. N-terminally biotinylated NCoA3 coactivator peptide (SEQ ID NO:7) was chemically synthesized (Eurogentec). Assays were done in 384 well format (final assay volume of 25 μL/well) in a Tris/HCl buffer (pH 6.8) containing KCl, bovine serum albumin, Triton-X-100 and 1 μM 24(S)-25-epoxycholesterol as LXR-prestimulating agonist. Assay buffer was provided and test articles (potential LXR inverse agonists) were titrated to yield final assay concentrations of 50 μM, 16.7 μM, 5.6 μM, 1.9 μM, 0.6 μM, 0.2 μM, 0.07 μM, 0.02 μM, 0.007 μM, 0.002 μM with one vehicle control. Finally, a detection mix was added containing anti GST-Tb cryptate (CisBio; 610SAXLB) and Streptavidin-XL665 (CisBio; 610SAXLB) as fluorescent donor and acceptor, respectively, as well as the coactivator peptide and LXRβ-LBD protein (SEQ ID NO:4). The reaction was mixed thoroughly, equilibrated for 1 h at 4° C. and vicinity of LXRβ and coactivator peptide was detected by measurement of fluorescence in a VictorX4 multiplate reader (PerkinElmer Life Science) using 340 nm as excitation and 615 and 665 nm as emission wavelengths. Assays were performed in triplicates.
240 mM KCl, 1 μg/μL BSA, 0.002% Triton-X-100, […] anti GST-Tb cryptate, 2.5 ng/μL Streptavidin-XL665, coactivator peptide (400 nM), LXRβ protein (530 μg/mL, i.e. 76 nM).

SMILES	EC50 (LXRβ)	EC50 [1]
N#Cc1cccc(C#N)c1-c1c(-c2cccc(N3CC(C(=O)O)C3)c2)n(S(=O)(=O)c2ccc(C(F)F)cc2)c2ccc(F)cc12 [3/67]	100 to 1000 nM	100 to 1000 nM
N#Cc1cccc(C#N)c1-c1c(-c2cccc(C3CC3C(=O)O)c2)n(S(=O)(=O)c2ccc(C(F)F)cc2)c2ccc(F)cc12 (stereo not drawn) [3/68]	< 100 nM	100 to 1000 nM
O=C(O)c1ccc(-c2cccc(-c3c(-c4cccc5oncc45)c4cc(F)ccc4n3S(=O)(=O)c3ccc(C(F)F)cc3)c2)c(Cl)c1 [3/69]	100 to 1000 nM	100 to 1000 nM
N#Cc1cccc(C#N)c1-c1c(-c2cccc(-c3ccc(C(=O)O)cc3Cl)c2)n(S(=O)(=O)c2ccc(C(F)F)cc2)c2cnc(O)cc12 [3/70]	100 to 1000 nM	100 to 1000 nM
N#Cc1cccc(C#N)c1-c1c(-c2cccc(-c3c(F)cc(OCC(=O)O)cc3F)c2)n(S(=O)(=O)c2ccc(C(F)F)cc2)c2ccc(F)cc12 [3/71]	< 100 nM	< 100 nM
CC(O)(C(=O)O)c1cc(F)c(-c2cccc(-c3c(-c4c(C#N)cccc4C#N)c4cc(F)ccc4n3S(=O)(=O)c3ccc(C(F)F)cc3)c2)c(F)c1 (stereo not drawn) [3/72]	< 100 nM	< 100 nM
Cc1ccc(S(=O)(=O)n2c(-c3cccc(C4CC4C(=O)O)c3)c(-c3ccsc3C#N)c3ccncc32)cc1 (stereo not drawn) [4/1]	< 100 nM	1000 to 10000 nM
Cc1ccc(S(=O)(=O)n2c(-c3cccc(C4CC4C(=O)O)c3)c(-c3ccsc3C#N)c3cccnc32)cc1 (stereo not drawn) [4/2]	100 to 1000 nM	1000 to 10000 nM
Cc1ccc(S(=O)(=O)n2c(-c3cccc(N4CC(C(=O)O)C4)c3)c(-c3ccsc3C#N)c3sccc32)cc1 [4/3]	< 100 nM	1000 to 10000 nM
Cc1ccc(S(=O)(=O)n2c(-c3cccc(-c4ccc(CO)c(S(=O)(=O)CC(=O)O)c4)c3)c(-c3ccsc3C#N)c3ccccc32)cc1 [5/1]	100 to 1000 nM	100 to 1000 nM
Cc1ccc(S(=O)(=O)n2c(-c3cccc(C45CC(C(=O)O)(C4)C5)c3)c(-c3ccsc3C#N)c3ccccc32)cc1 [5/2]	100 to 1000 nM	100 to 1000 nM
Cc1ccc(S(=O)(=O)n2c(-c3cccc(C#CC(C)(C)C(=O)O)c3)c(-c3ccsc3C#N)c3cc(F)ccc32)cc1 [5/4]	< 100 nM	1000 to 10000 nM
Cc1ccc(S(=O)(=O)n2c(-c3cccc(-n4ccc(C(=O)O)cc4=O)c3)c(-c3ccsc3C#N)c3cc(F)ccc32)cc1 [5/5]	100 to 1000 nM	100 to 1000 nM
Cc1ccc(S(=O)(=O)n2c(-c3ccnc(-c4ccc(C(=O)O)cc4)c3)c(-c3ccsc3C#N)c3cc(F)ccc32)cc1 [5/6]	< 100 nM	100 to 1000 nM
N#Cc1sccc1-c1c(-c2cccc(N3CC(C(=O)O)C3)c2)n(S(=O)(=O)c2ccc(Cl)cc2)c2ccc(F)cc12 [5/7]	< 100 nM	100 to 1000 nM
